The values below come from US11197865B2, “Applications for promethazine in preparing anti-liver cancer and/or colon cancer and/or lung cancer products” (SHANGHAI JIAO TONG UNIVERSITY, priority 2015, dated 2021).

pEC50, pIC50: −log10 of the molar value.

What all share (assay type): cell-based
In one assay the test system is HUH-7 liver cancer cells. Put plainly: CellTiter-Glo luminescent cell viability assay, HUH-7 liver cancer cells. The following applies: Homo sapiens, 72 hours. The source says:
(§1) In example 1, CELLTITER-GLO was used to test promethazine against liver cancer and/or colon cancer. n) HUH-7 cells and LoVo cells were handled as described above, and HUH-7 96-well cell culture plates and LoVo 96-well cell culture plates were obtained, respectively. The complete medium for HUH-7 cells was DMEM (a live product), Cat #11995081, with a cells/well density of 6000. 2. […] The final concentrations (μM) of the analyte drug in wells 2-10 in FIG. 1 are, in order: 100, 31.64557, 10.01442, 3.16912, 1.002886, 0.317369, 0.100433, 0.031783, 0.010058; B. CELLTITER-GLO Luminescent Cell Viability Assay System a) Before testing, the HUH-7 96-well drug screening plate and the LoVo 96-well drug screening plate described in 3 above were stabilized to room temperature for 20-30 minutes. c) 100 μl of CellTiter-Glo reagent (prepared as described in 1 above) was added to all drug screening plates and mixed evenly. d) It was thoroughly oscillated in a 96-well microplate oscillator for 2 minutes to allow the cells to undergo full lysis. e) It was stored away from light at room temperature for 15 minutes before carrying out luminescent signal detection to ensure signal stability. f) An EnSpire multi-function plate reader was used at 570 nm to read the luminescent signals. g) Data was processed and analyzed.

The subject of assay [1] is SKOV-3 human ovarian cancer cells. Put plainly: CellTiter-Glo luminescent cell viability assay, SKOV-3 ovarian cancer cells. The conditions noted are these: SK-OV-3, SKOV-3 cells, 72 hours.
Assay [2] concerns NCI-H2141 lung cancer cells. Put plainly: CellTiter-Glo luminescent cell viability assay, NCI-H2141 lung cancer cells. The following applies: 72 hours.
Assay [3] relates to NCI-H661 large-cell lung cancer cells. Put plainly: CellTiter-Glo luminescent cell viability assay, NCI-H661 large-cell lung cancer cells. The conditions noted are these: Homo sapiens, 72 hours.
A further assay deals with LoVo colon cancer cells. Put plainly: CellTiter-Glo luminescent cell viability assay, LoVo colon cancer cells. The following applies: Homo sapiens, 72 hours.
Excerpt: as §1, with “for LoVo” for “for HUH-7”, “of 8000.” for “of 6000.”

Turning to `CC(CN1c2ccccc2Sc2ccccc21)N(C)C` (stereo not shown) [promethazine], the pEC50 in the assay with HUH-7 liver cancer cells (FIG. 2, liver cancer (HUH-7)) is 4.38; in assay [2] (FIG. 4, lung cancer (NCI-H2141)) it was 4.47. For the same compound, the pIC50 is 4.50 in the assay on HUH-7 liver cancer cells (HUH-7 cells); no more than 4.00 in assay [1]; 4.46 in assay [2] (NCI-H2141 cells); no more than 4.00 in assay [3]; 4.48 in the assay on LoVo colon cancer cells.
